The record followed here is patent US8552015B2, “Quinazolinone derivatives and their use as CB agonists” (Novartis AG, priority 2002, dated 2013).

One data set concerns the target T1, human CB2 receptors (Homo sapiens, UniProt P34972).
T1 construct: purchased Receptor Biology, Beltsville, Md; host or cells: CHOK1 cells (transfected), membrane preparation
Put plainly: Test II: CB2 receptor binding assay ([3H]CP55940 displacement). As to conditions: membranes from CHOK1 cells, Ki from IC50 by Cheng-Prussoff. As for the experimental part:
(§1) The assay mixture comprises 75 μL of membrane suspension [membranes from CHOK1 cells transfected with human CB2 receptors from Receptor Biology, Beltsville, Md.; 133 μg/mL in assay buffer (50 mM Tris-HCl, 2.5 mM EDTA, 5 mM MgCl2 5 mg/mL BSA, pH7.4), approx, 10 μg/well)], 25 μL WGA-YS beads [Yttrium silicate beads coated with wheat germ agglutinin, Amersham (40 mg/mL, 1 mg/well)), 50 μL test compound in 4% DMSO and 50 μL radioligand {[^3H]CP55940 (180 Ci/mmol), New England Nuclear; final concentration 0.125 nM, in assay buffer}. All components are mixed, shaken at room temperature for 2 hours, then counted on a Topcount. Non-saturable binding is measured in the presence of 10 μM (R)-(+)-[2,3-d]hydro-5-methyl-3-[(4-morpholinyl)methyl]pyrrolo[1,2,3-de]-1,4-benzoxazin-6-yl](1-naphthalenyl)methanone (WIN55,212-2, Tocris).
The IC50 values are calculated in ORIGIN using a logistic fit. Ki values are calculated from the IC50 values using the Cheng-Prussoff equation (Ki=IC50/(1+([L]/Kd)) where [L] is the ligand concentration.

The target of data set [1] is T2, hCB1 receptor (Homo sapiens, UniProt P21554). In words: Test I: CB1 receptor binding assay ([3H]CP55940 displacement). Particulars: membranes from HEK293 cells, Ki from IC50 by Cheng-Prussoff. More on the design: purchased Receptor Biology, Beltsville, Md; host or cells: HEK293 cells (transfected), membrane preparation. How it is done: More particularly the agents of the invention are active at the human CB1 and CB2 receptor.
T2 sequence (P21554 whole entry): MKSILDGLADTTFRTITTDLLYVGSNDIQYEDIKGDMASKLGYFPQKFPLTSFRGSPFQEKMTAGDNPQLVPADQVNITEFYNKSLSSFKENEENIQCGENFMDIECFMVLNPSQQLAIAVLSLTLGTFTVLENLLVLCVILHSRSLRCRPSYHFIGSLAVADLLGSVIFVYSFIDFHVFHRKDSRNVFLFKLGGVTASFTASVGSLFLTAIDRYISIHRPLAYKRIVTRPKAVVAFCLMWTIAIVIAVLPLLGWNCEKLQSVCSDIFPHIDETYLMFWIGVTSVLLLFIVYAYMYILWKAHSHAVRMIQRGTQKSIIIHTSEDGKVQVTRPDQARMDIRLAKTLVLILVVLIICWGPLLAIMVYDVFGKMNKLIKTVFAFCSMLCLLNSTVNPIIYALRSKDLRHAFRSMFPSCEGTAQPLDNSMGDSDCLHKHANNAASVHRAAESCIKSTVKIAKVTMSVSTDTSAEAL
as §1, with “HEK293” for “CHOK1”, “CB1” for “CB2”, “mg/well)],” for “mg/well)),”, “(R)-(+)-[2,3-dihydro-5-methyl-3-[(4-morpholinyl)methyl]pyrrolo[1,2,3-de]-1,4-benzoxazin-6-yl](1-naphthalenyl)methanone” for “(R)-(+)-[2,3-d]hydro-5-methyl-3-[(4-morpholinyl)methyl]pyrrolo[1,2,3-de]-1,4-benzoxazin-6-yl](1-naphthalenyl)methanone”
The IC50 values are calculated in ORIGIN using a logistic fit. Ki values are calculated from the IC50 values using the Cheng-Prussoff equation (Ki=IC50/(1+([L]/Kd)) where [L] is the ligand concentration. • Test II: CB2 Receptor Binding Assay

Data set [2] has as its target T2, hCB1 receptor. In words: Test IV: CB1 functional assay ([35S]GTPγS binding). The format is biochemical. More on the design: purchased Receptor Biology Inc RBhCB1 382200; host or cells: HEK293 cells, membrane preparation. As to conditions: hCB1 receptor membrane (HEK293 cells).
Method: G-protein activation is used as a functional measure of receptor-ligand association for G-protein coupled receptors. The basic mechanism behind G-protein activation is the exchange of bound guanosine 5′-diphosphate (GDP) for guanosine 5′-triphosphate (GTP). Using a radioactive, non-hydrolyzable form of GTP, such as guanosine 5′-O-(3-[^35S]thiophosphate ([^35S]GTPγS), G-protein activation is assessed by measuring the accumulation of membrane-bound radioactivity in response to receptor activation.
The plate is sealed with a topseal A cover and vortexed for 2 minutes. The plate is incubated at room temperature for 60 min., centrifuged (Beckman 6JB) at 800 g for 5 minutes and counted on a Topcount for 3 minutes.
Non-specific binding is determined using 10 μM GTPγS, and this is subtracted from all values. Basal binding is assayed in the absence of agonist and in the presence of GDP. The stimulation by agonist is defined as a percentage increase above basal levels, i.e., {[cpm(agonist)−cpm(no agonist)]/cpm(no agonist)}×100
Data are reported as mean ±S.E.M. of one to six experiments performed in triplicate. Non-linear regression analysis of concentration-response data is performed using Origin version 5, (logistics algorithm; Microcal Software Inc. MA, USA) to calculate percentage maximal effect (Emax, %) and EC50 (nM) values. […]
Data set [3] has as its system neuropathic pain induced by partial ligation of the sciatic nerve. Put plainly: Test III: Neuropathic pain model (partial ligation of the sciatic nerve, mechanical hyperalgesia). It counts as in vivo, Wistar-rats. Particulars: p.o.; dose necessary to produce 50% reversal of hyperalgesia. An excerpt:
Activity specifically as analgesic agents may be confirmed in accordance with standard test methods, e.g. as described in the following test. • Test III: Neuropathic Pain Model
Hyperalgesia is examined in the model of neuropathic pain induced by partial ligation of the sciatic nerve as described by Seltzer et al. (1990). Briefly, Wistar-rats (120-140 g) are anaesthetised, the left sciatic nerve exposed at mid-thigh level through a small incision and ⅓ to ½ of the nerve thickness tightly ligated within a 7.0 silk suture. The wound is closed with a single muscle suture and skin clips and dusted with Aureomycin antibiotic powder. The animals are allowed to recover and used 12-15 days following surgery.
Mechanical hyperalgesia is assessed by measuring paw withdrawal thresholds to an increasing pressure stimulus placed onto the dorsal surface of the paw using an analgesymeter (Ugo-Basile, Milan) with a cut-off of 250 g. Withdrawal thresholds are measured on both the ipsilateral (ligated) and contralateral (unligated) paw prior to (predose) and then up to 6 h following drug or vehicle administration. Data are expressed as withdrawal threshold (g) and percentage reversal of hyperalgesia calculated according to the following formula:
[formula] • Potency is expressed as D50 value, i.e. the dose of compound necessary to produce 50% reversal of hyperalgesia.

Where a name gives a salt, the structure may show the parent alone.

T1 sequence (P34972 whole entry): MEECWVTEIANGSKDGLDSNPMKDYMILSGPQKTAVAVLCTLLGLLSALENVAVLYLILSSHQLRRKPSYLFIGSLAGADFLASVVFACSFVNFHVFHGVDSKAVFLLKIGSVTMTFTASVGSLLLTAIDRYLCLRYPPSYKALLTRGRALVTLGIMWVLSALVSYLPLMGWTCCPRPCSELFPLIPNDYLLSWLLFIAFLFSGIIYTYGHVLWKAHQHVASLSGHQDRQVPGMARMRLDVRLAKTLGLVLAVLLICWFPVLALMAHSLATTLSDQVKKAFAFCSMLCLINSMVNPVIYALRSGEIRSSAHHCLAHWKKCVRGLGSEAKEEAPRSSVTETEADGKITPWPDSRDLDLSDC

As a reminder, the melting point is the temperature of the solid-liquid transition. Regarding `CCNC(=O)OCc1nc2cc(C)c(C(=O)OCC)c(C)c2c(=O)n1-c1ccccc1S(=O)(=O)NC` (as salt: hydrochloride), the melting point fell in the range of 126 to 130 °C.
Broadly, the Ki is the dissociation constant of the complex between target and ligand, obtained from inhibition or displacement. A low value points to tighter binding. A word on the EC50: it is the concentration that produces a half-maximal response. Read a low EC50 as greater potency. Take `CCOC(=O)c1c(C)cc2nc(COC(=O)NCCO)n(-c3ccccc3S(=O)(=O)NC)c(=O)c2c1C` [Example 2, 2-(2-Hydroxy-ethylcarbamoyloxymethyl)-5,7-dimethyl-3-(2-methylsulfamoyl-phenyl)-4-oxo-3,4-dihydro-quinazoline-6-carboxylic acid ethyl ester]: the Ki stood at 11 ± 3.5 nM at human CB2 receptors and 34 ± 3 nM on hCB1 receptor [1]. At hCB1 receptor [2], this compound gave an EC50 of 132 ± 19 nM. Moreover, in data set [3], the “D50 value in the neuropathic pain model of test III” value came to 0.5 mg/kg.
